Marks after values point to notes of the source that are not given here.
What was measured:
Type in all cases: in vivo
[1] = test system: mouse cerebral infarction model; assay: Mouse cerebral infarction model: infarction area percentage, neurological symptom, edema percentage; conditions: evaluated 24 h, mean ± SE, n=6
Description: Using male ddY line mouse (body weight 35 to 45 g), a cerebral infarction model was produced and evaluated about neurological symptoms and the infarction area percentage according to methods similar to the production method and the evaluation method for the Mongolian gerbil cerebral infarction model.
The improvement effectiveness of SMTP-7 and alteplase on the infarction area percentage, the neurological symptom and the edema percentage was compared using the mouse cerebral infarction model. At the same time the dose dependence of the degree of improvement of SMTP-7 was investigated.
SMTP-7 and alteplase were prepared as in Example 2. Ten mg/kg each was administered into the femoral vein 1 hour or 3 hours after the initiation of ischemia in a mouse cerebral infarction model, wherein 10% was administered by a bolus administration, and the rest by continuous administration over 30 min. Further, 0.1 mg/kg or 1 mg/kg of SMTP-7 was administered into the femoral vein 1 hour after the initiation of ischemia in a mouse cerebral infarction model, wherein 10% was administered by a bolus administration, and the rest by continuous administration over 30 min. Six mice were used for each condition.
Twenty four hours after the initiation of the operation neurological symptom of each mouse was examined to rate the neurological symptom. Then the brain of each mouse was extirpated and the infarction area was measured and the infarction area percentage was determined. The edema percentage was determined according to the following formula: Edema percentage (%)=(Volume of the cerebral hemisphere affected by ischemia−Volume of the other side cerebral hemisphere)/Volume of the other side cerebral hemisphere×100 […]

[2] = test system: IL-1β; assay: Real time RT-PCR of inflammation parameter IL-1β in brain of mouse cerebral infarction model; conditions: 10 mg/kg, ipsilesional (right) brain at 24 h, mean ± SE, n=6
Description: (§1) Using the Mouse Cerebral Infarction model changes of parameters related to inflammation among the triprenyl phenol compound (10 mg/kg) administration groups, the alteplase (10 mg/kg) administration groups, and the alteplase (10 mg/kg) and aspirin (10 mg/kg) combined administration group were evaluated by a real time RT-PCR method. As the parameters IL-1β, TNF-α nd IL-6 were selected, which were typical parameters related to inflammation.
(§2) The administrations of SMTP-7 (10 mg/kg) and alteplase (10 mg/kg) were initiated 1 hour or 3 hours after the initiation of ischemia. The administration method was same as Example 3.
(§3) The combined administration of alteplase (10 mg/kg) and aspirin (10 mg/kg) was initiated 3 hours after the initiation of ischemia. Alteplase was administered same as in Example 3, and aspirin was administered by a bolus intravenous injection into the femoral vein.
(§4) The administrations of SMTP-6, SMTP-22, SMTP-25, SMTP-43 and SMTP-44D were initiated 1 hour after the initiation of ischemia. The administration method was same as Example 5.
(§5) After 24 hours of the initiation of the operation, a Krebs-HEPES buffer was perfused from the heart and then the brain was extirpated.
(§6) After preparing brain slices, the fourth slice was divided to the left brain and the right brain, and homogenized respectively with 1 mL of TRIZOL (registered trademark) reagent (Invitrogen). After incubating at room temperature for 5 min, adding chloroform (0.2 mL), and mixing for 15 sec, incubation was carried out at room temperature for 3 min. The samples were centrifuged at 4° C. for 15 min at 12,000×g.
(§7) Since RNA moved to a water layer, the water layer was collected and, after addition of 0.5 mL of isopropyl alcohol, followed by incubation at room temperature for 10 min, centrifuged at 4° C. for 10 min at 12,000×g. Since a pellet was formed in a tube after the centrifugation, the supernatant was removed, and 1 mL of 75% ethanol was added followed by stirring to wash the pellet. The mixture was then centrifuged at 4° C. for 5 min at 7,500×g. After removing again the supernatant, being left for natural drying for 8 min, the pellet containing the RNA was dissolved in 100 μL of RNase-free water. cDNA was produced by reverse transcription of the RNA using a SuperScript (registered trademark) VILOTM cDNA Synthesis Kit (Invitrogen) by a Thermal Cycler 2720 (Applied Biosystems). More particularly, 4 μL of 5×VILOTM Reaction Mix, 2 μL of 10× SuperScript (registered trademark) Enzyme Mix, and 1 μg of each RNA were mixed and diluted to 20 μL with RNase-free water.
(§8) Reverse transcription was conducted using the above samples under the following conditions. After reacting at 25° C. for 10 min, at 42° C. for 60 min, and at 85° C. for 5 min, the product was stored at 4° C. With the cDNA as a template real time RT-PCR was carried out by ABI PRISM 7000 using SYBR (registered trademark) GreenERTM qPCR SuperMix for ABI PRISM (registered trademark; Invitrogen). […]
(§9) Real time RT-PCR was conducted using the above samples under the following conditions. […] Changes of the respective parameters were determined by a calibration curve method. β-actin was measured as an internal control, and the respective parameters were calculated as a relative value based on the β-actin. […]

[3] = test system: TNF-α; assay: Real time RT-PCR of inflammation parameter TNF-α in brain of mouse cerebral infarction model; conditions: 10 mg/kg, ipsilesional (right) brain at 24 h, mean ± SE, n=6
Description: as §1, §2, §3, §4, §5, §6, §7, §8, §9

[4] = test system: IL-6; assay: Real time RT-PCR of inflammation parameter IL-6 in brain of mouse cerebral infarction model; conditions: 10 mg/kg, ipsilesional (right) brain at 24 h, mean ± SE, n=6
Description: as §1, §2, §3, §4, §5, §6, §7, §8, §9

[5] = 10 mg/kg femoral vein, administration initiated 1 hr after ischemia
[6] = 10 mg/kg femoral vein, administration initiated 3 hr after ischemia
[7] = administration initiated 1 hr after ischemia
[8] = administration initiated 3 hr after ischemia
[9] = 0.1 mg/kg femoral vein, administration 1 hour after ischemia
[10] = 1 mg/kg femoral vein, administration 1 hour after ischemia

Row | Compound | Edema percentage [1, 5] [%] | Infarction area [1, 5] [%] | Neurological scores [1, 5] | Edema percentage [1, 6] [%] | Infarction area [1, 6] [%] | Neurological scores [1, 6] | IL-1β, relative value to β-actin [2, 7] | IL-1β, relative value to β-actin [2, 8] | TNF-α, relative value to β-actin [3, 7] | TNF-α, relative value to β-actin [3, 8] | IL-6, relative value to β-actin [4, 7] | IL-6, relative value to β-actin [4, 8] | Edema percentage [1, 9] [%] | Infarction area [1, 9] [%] | Neurological scores [1, 9] | Edema percentage [1, 10] [%] | Infarction area [1, 10] [%] | Neurological scores [1, 10]
1 | alteplase [reference compound] | 3.63 ± 2.67 | 6.15 ± 1.94 | 1.17 ± 0.749 | 12.6 ± 1.84 | 11.9 ± 2.26 | 2.50 ± 0.500 | 0.0408 ± 0.0173 | 0.347 ± 0.172**^,## | 0.164 ± 0.0332 | 0.381 ± 0.155 | 0.0582 ± 0.0254 | 0.341 ± 0.138**^,# |  |  |  |  |  | 
2 | CC(C)=CCC/C(C)=C/CC[C@@]1(C)Oc2c(c(O)cc3c2CN(CCC[C@@H](C(=O)O)N2Cc4c(cc(O)c5c4O[C@](C)(CC/C=C(\C)CCC=C(C)C)[C@@H](O)C5)C2=O)C3=O)C[C@@H]1O [SMTP-7] | 5.81 ± 0.967 | 4.87 ± 1.06 | 1.67 ± 0.422 | 6.23 ± 1.07 | 5.05 ± 0.576 | 1.33 ± 0.558 | 0.0314 ± 0.0171 | 0.0728 ± 0.0380 | 0.151 ± 0.0313 | 0.147 ± 0.0293 | 0.0356 ± 0.0138 | 0.0651 ± 0.0308 | 10.15 ± 1.817 | 10.08 ± 2.07 | 2.5 ± 0.5 | 8.81 ± 2.292 | 6.66 ± 0.71 | 2 ± 0.632
3 | CC(C)=CCC/C(C)=C/CCC1(C)Oc2c(c(O)cc3c2CN(C(Cc2c[nH]c4ccccc24)C(=O)O)C3=O)CC1O (stereo not drawn) [SMTP-6] | 9.80 ± 2.74 | 9.81 ± 1.43 | 3 ± 0.447 |  |  |  | 0.165 ± 0.0930 |  | 0.261 ± 0.119 |  | 0.220 ± 0.0850 |  |  |  |  |  |  | 
